Results reported in patent US20240408093A1, “HETEROBIFUNCTIONAL COMPOUNDS AND THEIR USE IN TREATING DISEASE” (HALDA THERAPEUTICS OPCO, INC., priority 2022, published 2024).
Read-outs that look alike come from different tables or passages of the source.

Assays:
Assay type in all cases: cell-based
[1] = system: HEK293 cells (ATCC CRL-1573); assay: Cellular growth inhibition assay, HEK293 cells (Example 16); conditions: Homo sapiens, 72 hours, CellTiter-Glo 2.0
HeLa cells (ATCC CCL-2) = assay: Cellular growth inhibition assay, HeLa cells (Example 16); conditions: Homo sapiens, 72 hours, CellTiter-Glo 2.0
GSPT1 [2] = assay: Payload release assay (DC50 readout), GSPT1 degradation in the presence of recombinant target protein; conditions: I-series compounds (GSPT1 readout inferred)
Method: Exemplary compounds were tested for ability to cause degradation of CCNK or GSPT1 in the presence of recombinant target protein.
HEK293 LgBiT/GSPT1 HiBiT CRISPR Knock-in cells (Promega) were cultured in DMEM (Gibco 11995), supplemented with 10% Heat-inactivated FBS (Gibco A38400-01) and 1% Penicillin/Streptomycin (Gibco 15140-122) and 200 Vg/ml Hygromycin B (Gibco 10-687-010) at 37° C. with 5% CO2 in a humidified tissue culture incubator. HEK293 LgBiT/CCNK HiBiT cells (in-house, described above) were cultured in DMEM (Gibco 11995), supplemented with 10% Heat-inactivated FBS (Gibco A38400-01) and 1% Penicillin/Streptomycin (Gibco 15140-122) 200 Vg/ml Hygromycin B (Gibco 10-687-010), and 1 Vg/ml Puromycin Dihydrochloride (Thermo A1113803) at 37° C. with 5% CO2 in a humidified tissue culture incubator. Cells were seeded (1000 cells/well for HEK293 LgBiT/GSPT1 HiBiT cells or 3000 cells/well for HEK293 LgBiT/CCNK HiBiT cells) 384-well, tissue culture-treated white plates (Perkin Elmer 6007680) in 10 μL media lacking selection for 18-24 hours. Plates were spun at 300 g for 30 seconds and stored in the incubator overnight. After 24 hours, a 5 μL aliquot of recombinant target protein (final concentration of either 5 μM KRAS amino acids 1-169, C51S, C80L, C118S, G12C or 3 μM EGFR amino acids 696-1022 or 3 μM EGFR amino acids 696-1022, T790M, L858R) was added to wells, followed immediately by a 5 μL aliquot of 4× compound-containing medium supplemented with Endurazine Substrate (Promega N2570) was added in each well, at a final top concentration of 10 μM test compound and 0.5× Endurazine, with 4-fold dilutions, using DMSO alone as a negative control. Plates were then spun at 300×g for 3 minutes again and cultured at 37° C. with 5% CO2. After 6 hours the plate was read on Envision MultiMode Plate Reader 2105 (Perkin Elmer) to measure luminescence signal. Data was normalized to DMSO treated cell wells. A four-parameter non-linear regression curve fit was applied to dose-response data in Prism to determine the half maximal growth inhibitory concentration (GI50) of each compound.

GSPT1 [3] = molecular target: T1, GSPT1 (Homo sapiens, UniProt P15170+Q96SW2); assay: GSPT1 HiBiT degradation assay; conditions: HEK293 LgBiT GSPT1 HiBiT cells, 6 hours
T1 construct: host or cells: HEK293 LgBiT / GSPT1 HiBiT CRISPR knock-in
How it was run: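 HEK293 CRISPR knock-in cells expressing LgBiT and GSPT1-HiBiT were seeded at 1000 cells/well and, after 18-24 h, treated with titrated compound plus endurazine (0.5× final) at 37 °C. Luminescence read after 6 h; loss of signal reflects GSPT1 degradation, giving DC50.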

[4] = 0 μM recombinant KRAS G12C, read-out: DC50 at 0 μM KRAS G12C
[5] = 5 μM recombinant KRAS G12C, read-out: DC50 at 5 μM KRAS G12C
[6] = 0 μM recombinant EGFR T790M L858R, read-out: DC50 at 0 μM EGFR T790M L858R
[7] = 0 μM recombinant EGFR WT, read-out: DC50 at 0 μM EGFR WT
[8] = 3 μM recombinant EGFR T790M L858R, read-out: DC50 at 3 μM EGFR T790M L858R
[9] = 3 μM recombinant EGFR WT, read-out: DC50 at 3 μM EGFR WT

T1 sequence (P15170 whole entry): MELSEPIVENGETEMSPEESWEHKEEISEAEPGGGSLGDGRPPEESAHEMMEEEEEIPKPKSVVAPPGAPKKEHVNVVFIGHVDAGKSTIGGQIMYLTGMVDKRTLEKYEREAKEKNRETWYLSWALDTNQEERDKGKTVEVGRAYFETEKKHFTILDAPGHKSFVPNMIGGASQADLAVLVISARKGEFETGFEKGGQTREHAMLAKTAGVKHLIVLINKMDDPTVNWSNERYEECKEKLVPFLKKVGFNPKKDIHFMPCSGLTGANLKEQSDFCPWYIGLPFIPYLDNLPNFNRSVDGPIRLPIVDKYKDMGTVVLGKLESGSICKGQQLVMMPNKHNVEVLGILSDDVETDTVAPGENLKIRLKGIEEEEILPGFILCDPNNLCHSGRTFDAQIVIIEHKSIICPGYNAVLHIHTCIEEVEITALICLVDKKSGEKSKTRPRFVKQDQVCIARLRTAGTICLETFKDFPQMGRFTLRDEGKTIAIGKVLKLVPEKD
T1 sequence (Q96SW2 whole entry): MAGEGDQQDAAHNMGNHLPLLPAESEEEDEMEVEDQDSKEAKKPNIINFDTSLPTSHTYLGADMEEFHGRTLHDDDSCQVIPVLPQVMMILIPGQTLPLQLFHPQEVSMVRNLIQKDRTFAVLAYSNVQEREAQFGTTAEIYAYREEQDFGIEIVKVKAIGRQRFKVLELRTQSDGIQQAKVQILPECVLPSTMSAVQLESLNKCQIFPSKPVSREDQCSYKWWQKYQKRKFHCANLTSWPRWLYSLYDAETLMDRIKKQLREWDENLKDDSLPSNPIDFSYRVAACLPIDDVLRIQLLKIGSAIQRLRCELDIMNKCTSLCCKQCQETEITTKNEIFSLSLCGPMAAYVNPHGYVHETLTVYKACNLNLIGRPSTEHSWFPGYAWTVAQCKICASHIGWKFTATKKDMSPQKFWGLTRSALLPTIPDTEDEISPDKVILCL
T1 sequence (Q16531 whole entry partner): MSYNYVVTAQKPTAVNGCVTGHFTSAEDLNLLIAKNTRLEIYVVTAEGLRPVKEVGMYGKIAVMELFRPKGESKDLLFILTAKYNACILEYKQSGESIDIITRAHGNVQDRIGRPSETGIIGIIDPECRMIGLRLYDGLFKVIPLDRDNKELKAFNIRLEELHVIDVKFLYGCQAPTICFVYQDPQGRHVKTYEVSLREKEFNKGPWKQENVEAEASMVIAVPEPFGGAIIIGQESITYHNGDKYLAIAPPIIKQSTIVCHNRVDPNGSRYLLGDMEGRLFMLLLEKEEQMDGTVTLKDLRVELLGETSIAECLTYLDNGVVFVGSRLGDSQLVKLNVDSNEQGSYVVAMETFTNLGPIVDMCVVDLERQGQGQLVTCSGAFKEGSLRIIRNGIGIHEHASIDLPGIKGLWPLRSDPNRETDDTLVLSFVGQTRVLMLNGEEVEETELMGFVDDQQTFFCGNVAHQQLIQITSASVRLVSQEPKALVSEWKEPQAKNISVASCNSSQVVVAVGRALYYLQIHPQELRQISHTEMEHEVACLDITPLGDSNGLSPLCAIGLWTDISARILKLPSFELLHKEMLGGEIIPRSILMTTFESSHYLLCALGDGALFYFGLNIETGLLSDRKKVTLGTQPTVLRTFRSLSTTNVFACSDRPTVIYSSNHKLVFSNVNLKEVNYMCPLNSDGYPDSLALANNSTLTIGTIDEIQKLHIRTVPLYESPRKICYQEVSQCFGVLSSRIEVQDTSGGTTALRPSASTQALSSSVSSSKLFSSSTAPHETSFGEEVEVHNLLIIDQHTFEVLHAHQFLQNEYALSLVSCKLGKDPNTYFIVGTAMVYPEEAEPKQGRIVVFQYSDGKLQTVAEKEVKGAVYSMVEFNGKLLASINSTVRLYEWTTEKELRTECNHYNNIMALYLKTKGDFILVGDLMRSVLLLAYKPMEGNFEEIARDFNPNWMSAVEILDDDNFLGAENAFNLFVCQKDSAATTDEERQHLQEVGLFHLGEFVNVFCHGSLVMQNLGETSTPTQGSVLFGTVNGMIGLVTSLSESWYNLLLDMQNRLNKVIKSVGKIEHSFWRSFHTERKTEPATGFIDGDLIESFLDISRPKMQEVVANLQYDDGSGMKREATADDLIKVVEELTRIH

Row | GI50 (HeLa cells (ATCC CCL-2)) [nM] | DC50 (GSPT1 [2]; [6]) [nM] | DC50 (GSPT1 [2]; [7]) [nM] | DC50 (GSPT1 [2]; [8]) [nM] | DC50 (GSPT1 [2]; [9]) [nM] | Structure (SMILES) | GI50 [1] [nM] | DC50 (GSPT1 [2]; [4]) [nM] | DC50 (GSPT1 [2]; [5]) [nM] | DC50 (GSPT1 [3]) [nM]
1 | 1500 to 10000 | 250 to 5000 | 5000 to 10000 | < 250 | < 250 | C=C(CN(C(=O)NCc1ccc2c(c1)CN(C1CCC(=O)NC1=O)C2=O)c1ccc(C)c(Cl)c1)C(=O)Nc1cc(Nc2ncc(-c3cn(C)c4ccccc34)cn2)c(OC)cc1N(C)CCN(C)C (stereo not drawn) [Compound I-42] | 1500 to 10000 |  |  | > 2500
2 | 1500 to 10000 | < 250 | < 250 | < 250 | < 250 | C=C(COc1cc(Cl)cc(NC(=O)NCc2ccc3c(c2)CN(C2CCC(=O)NC2=O)C3=O)c1)C(=O)N[C@@H]1CN(c2nc(Nc3cn(C)nc3OC)c3ncn(C)c3n2)C[C@H]1F (stereo partly drawn) [Compound I-45] | < 500 |  |  | 500 to 2500
3 | 500 to 1500 | < 250 | < 250 | < 250 | < 250 | C=C(COc1ccc(Cl)cc1NC(=O)NCc1ccc2c(c1)CN(C1CCC(=O)NC1=O)C2=O)C(=O)N[C@@H]1CN(c2nc(Nc3cn(C)nc3OC)c3ncn(C)c3n2)C[C@H]1F (stereo partly drawn) [Compound I-47] | < 500 |  |  | 50 to 500
4 | 1500 to 10000 | < 250 | < 250 | < 250 | < 250 | C=C(COc1cc(Cl)cc(NC(=O)NCc2ccc3c(c2)CN(C2CCC(=O)NC2=O)C3=O)c1)C(=O)N1C[C@H](COc2nc(Nc3cnn(C)c3)nc3[nH]cc(Cl)c23)[C@@H](OC)C1 (stereo partly drawn) [Compound I-54] | 500 to 1500 |  |  | < 50
5 | 1500 to 10000 | < 250 | < 250 | < 250 | 250 to 5000 | C=C(COc1cc(Cl)cc(NC(=O)NCc2ccc3c(c2)CN(C2CCC(=O)NC2=O)C3=O)c1)C(=O)Nc1cccc(Oc2nc(Nc3ccc(N4CCN(C)CC4)cc3)nc3ccsc23)c1 (stereo not drawn) [Compound I-55] | 500 to 1500 |  |  | 50 to 500
6 |  |  |  |  |  | C=C(COC(=O)NCCc1ccc(Cl)cc1NC(=O)NCc1ccc2c(c1)CN(C1CCC(=O)NC1=O)C2=O)C(=O)N1CCN(c2nc(OC[C@@H]3CCCN3C)nc3c2CCN(c2cccc4cccc(Cl)c24)C3)C[C@@H]1CC#N (stereo partly drawn) [Compound I-78] | > 10000 | > 10000 | > 10000 | 500 to 2500
7 |  |  |  |  |  | C=C(COC(=O)NCCCc1ccc(Cl)cc1NC(=O)NCc1ccc2c(c1)CN(C1CCC(=O)NC1=O)C2=O)C(=O)N1CCN(c2nc(OC[C@@H]3CCCN3C)nc3c2CCN(c2cccc4cccc(Cl)c24)C3)C[C@@H]1CC#N (stereo partly drawn) [Compound I-79] | > 10000 | 250 to 5000 | > 10000 | 500 to 2500
8 |  |  |  |  |  | C=C(COc1ccccc1NC(=O)NCc1ccc2c(c1)CN(C1CCC(=O)NC1=O)C2=O)C(=O)N1CCN(c2nc(OC[C@H]3CCCN3C)nc3c2CCN(c2cccc4cccc(Cl)c24)C3)C[C@H]1CC#N (stereo partly drawn) [Compound I-80] | > 10000 | 250 to 5000 | < 250 | > 2500
9 | 500 to 1500 |  |  |  |  | C=C(COC(=O)n1c(CNc2nc(N3CCNCC3)nc3c(Br)cnn23)nc2cc(C)ccc21)C(=O)N1C[C@H](COc2nc(Nc3cnn(C)c3)nc3[nH]cc(Cl)c23)[C@@H](OC)C1 [Compound V-4] | < 500 |  |  | 
10 | < 500 |  |  |  |  | C=C(COc1cc(-c2ccccn2)ccc1CNc1nc(N[C@H](CC)CO)nc2c1ncn2C(C)C)C(=O)N[C@@H]1CN(c2nc(Nc3cn(C)nc3OC)c3ncn(C)c3n2)C[C@H]1F [II-183] | < 500 |  |  | 
11 | 500 to 1500 |  |  |  |  | C=C(COC(=O)N1CCN(c2nc(NCc3nc4cc(C)ccc4[nH]3)n3ncc(Br)c3n2)CC1)C(=O)N1C[C@H](COc2nc(Nc3cnn(C)c3)nc3[nH]cc(Cl)c23)[C@@H](OC)C1 [II-185] | < 500 |  |  | 
12 | < 500 |  |  |  |  | C=C(CN1CCN(c2nc(NCc3nc4cc(C)ccc4[nH]3)n3ncc(Br)c3n2)CC1)C(=O)Nc1cc(Nc2nccc(-c3cn(C)c4ccccc34)n2)c(OC)cc1N(C)CCN(C)C [II-188] | < 500 |  |  | 
13 | < 500 |  |  |  |  | C=C(CN1CCN(c2nc(NCc3nc4cc(C)ccc4[nH]3)n3ncc(Br)c3n2)CC1)C(=O)Nc1cccc(-c2cccc3cnc(Nc4ccc(N5CCN(CCO)CC5)c(F)c4F)nc23)c1 [II-191] | < 500 |  |  | 

Row | Structure (SMILES) | GI50 (HeLa cells (ATCC CCL-2)) [nM] | DC50 (GSPT1 [2]; [6]) [nM] | DC50 (GSPT1 [2]; [7]) [nM] | DC50 (GSPT1 [2]; [8]) [nM] | DC50 (GSPT1 [2]; [9]) [nM] | GI50 [1] [nM] | DC50 (GSPT1 [2]; [4]) [nM] | DC50 (GSPT1 [2]; [5]) [nM] | DC50 (GSPT1 [3]) [nM]
14 | C=C(COc1ccc(CN2C(=O)CCC(N3Cc4cc(CNC(=O)Nc5ccc(C)c(Cl)c5)ccc4C3=O)C2=O)cc1)C(=O)N1CCN(c2nc(OC[C@H]3CCCN3C)nc3c2CCN(c2cccc4cccc(Cl)c24)C3)C[C@@H]1CC#N (stereo in doubt) [Compound I-44] | > 10000 |  |  |  |  | > 10000 | > 10000 | 250 to 5000 | > 2500
15 | C=C(COc1cc(Cl)cc(NC(=O)NCc2ccc3c(c2)CN(C2CCC(=O)NC2=O)C3=O)c1)C(=O)N1CCN(c2nc(OC[C@@H]3CCCN3C)nc3c2CCN(c2cccc4cccc(Cl)c24)C3)C[C@@H]1CC#N (stereo partly drawn) [Compound I-35] | 1500 to 10000 |  |  |  |  | 1500 to 10000 | 250 to 5000 | < 250 | > 2500
16 | C=C(COc1cc(Cl)c(OC)cc1NC(=O)NCc1ccc2c(c1)CN(C1CCC(=O)NC1=O)C2=O)C(=O)N1CCN(c2nc(OC[C@@H]3CCCN3C)nc3c2CCN(c2cccc4cccc(Cl)c24)C3)C[C@@H]1CC#N (stereo partly drawn) [Compound I-46] | > 10000 |  |  |  |  | 500 to 1500 | 250 to 5000 | < 250 | 500 to 2500
17 | C=C(COc1cc(NC(=O)NCc2ccc3c(c2)CN(C2CCC(=O)NC2=O)C3=O)cc(C(F)(F)F)c1)C(=O)N1CCN(c2nc(OC[C@@H]3CCCN3C)nc3c2CCN(c2cccc4cccc(Cl)c24)C3)C[C@@H]1CC#N (stereo partly drawn) [Compound I-48] | > 10000 |  |  |  |  | 1500 to 10000 | 250 to 5000 | 250 to 5000 | 500 to 2500
18 | C=C(COc1cccc(NC(=O)NCc2ccc3c(c2)CN(C2CCC(=O)NC2=O)C3=O)c1)C(=O)N1CCN(c2nc(OC[C@@H]3CCCN3C)nc3c2CCN(c2cccc4cccc(Cl)c24)C3)C[C@@H]1CC#N (stereo partly drawn) [Compound I-49] | > 10000 |  |  |  |  | > 10000 | 250 to 5000 | > 10000 | 500 to 2500
19 | C=C(COc1cc(NC(=O)NCc2ccc3c(c2)CN(C2CCC(=O)NC2=O)C3=O)cc(OC)c1)C(=O)N1CCN(c2nc(OC[C@@H]3CCCN3C)nc3c2CCN(c2cccc4cccc(Cl)c24)C3)C[C@@H]1CC#N (stereo partly drawn) [Compound I-50] | > 10000 |  |  |  |  | > 10000 | 250 to 5000 | 250 to 5000 | > 2500
20 | C=C(COc1ccc(Cl)cc1NC(=O)NCc1ccc2c(c1)CN(C1CCC(=O)NC1=O)C2=O)C(=O)N1CCN(c2nc(OC[C@@H]3CCCN3C)nc3c2CCN(c2cccc4cccc(Cl)c24)C3)C[C@@H]1CC#N (stereo partly drawn) [Compound I-52] | 1500 to 10000 |  |  |  |  | 500 to 1500 | 250 to 5000 | < 250 | 500 to 2500
21 | C=C(COc1cc(-c2ccccn2)ccc1CNc1nc(N[C@H](CC)CO)nc2c1ncn2C(C)C)C(=O)N1CCN(c2nc(OC[C@@H]3CCCN3C)nc3c2CCN(c2cccc4cccc(Cl)c24)C3)C[C@@H]1CC#N [II-186] | 1500 to 10000 |  |  |  |  | 500 to 1500 |  |  | 
22 | C=C(CN1CCN(c2nc(NCc3nc4cc(C)ccc4[nH]3)n3ncc(Br)c3n2)CC1)C(=O)N1CCN(c2nc(OC[C@@H]3CCCN3C)nc3c2CCN(c2cccc4cccc(Cl)c24)C3)C[C@@H]1CC#N [II-190] | < 500 |  |  |  |  | < 500 |  |  | 
